In US8946217B2, “Pharmaceutical compounds” (F. Hoffman-La Roche AG, priority 2005, dated 2015):

Test system: Caco-2 cells
Experiment: Caco-2 permeability
Type: in vitro ADME
Details: bidirectional Caco-2 assay
Procedure: Caco-2 cells were seeded onto Millipore Multiscreen plates at 1×10^5 cells/cm^2, and were cultured for 20 days. Assessment of compound permeability was subsequently conducted. The compounds were applied to the apical surface (A) of cell monolayers and compound permeation into the basolateral (B) compartment was measured. This was performed in the reverse direction (B-A) to investigate active transport. A permeability coefficient value, Papp, for each compound, a measure of the rate of permeation of the compound across the membrane, was calculated. Compounds were grouped into low (Papp</=[…]) or high (Papp>/=[…]) absorption potential based on comparison with control compounds with established human absorption.
For assessment of a compound's ability to undergo active efflux, the ratio of basolateral (B) to apical (A) transport compared with A to B was determined. Values of B-A/A-B>/=1.0 indicated the occurrence of active cellular efflux. All of the compounds tested through the Caco-2 permeability screen had Papp values >/=[…].

- B-A/A-B asymmetry index: less than 1.0
SMILES: CN1CCN(Cc2cc3nc(-c4cccc(O)c4)nc(N4CCOCC4)c3s2)CC1 [PI540]
